# In ChEMBL document CHEMBL3870360, “GluN2A-Selective Pyridopyrimidinone Series of NMDAR Positive Allosteric Modulators with an Improved in Vivo Profile” (ACS Med Chem Lett, 2017):
# Columns and labels:
# [1] = molecular target: T1, Glutamate NMDA receptor; GRIN1/GRIN2A (Homo sapiens, UniProt Q05586+Q12879); assay: Positive allosteric modulation of GluN1/GluN2A receptor (unknown origin) expressed in CHO cells assessed as increase in glutamate-induced calcium flux at 125 uM measured at time interval of 5 mins in presence of saturating glycine by calcium dye-based fluorescence assay relative to glutamate; assay type: cell-based
# [2] = molecular target: T2, Glutamate receptor 2 (Homo sapiens, UniProt P42262); assay: Positive allosteric modulation of human GluA2 receptor flip isoform assessed as increase in glutamate-induced calcium flux at 125 uM measured at time interval of 5 mins in presence of saturating glycine by calcium dye-based fluorescence assay relative to glutamate; assay type: single protein
# T2 sequence (P42262 whole entry, canonical isoform): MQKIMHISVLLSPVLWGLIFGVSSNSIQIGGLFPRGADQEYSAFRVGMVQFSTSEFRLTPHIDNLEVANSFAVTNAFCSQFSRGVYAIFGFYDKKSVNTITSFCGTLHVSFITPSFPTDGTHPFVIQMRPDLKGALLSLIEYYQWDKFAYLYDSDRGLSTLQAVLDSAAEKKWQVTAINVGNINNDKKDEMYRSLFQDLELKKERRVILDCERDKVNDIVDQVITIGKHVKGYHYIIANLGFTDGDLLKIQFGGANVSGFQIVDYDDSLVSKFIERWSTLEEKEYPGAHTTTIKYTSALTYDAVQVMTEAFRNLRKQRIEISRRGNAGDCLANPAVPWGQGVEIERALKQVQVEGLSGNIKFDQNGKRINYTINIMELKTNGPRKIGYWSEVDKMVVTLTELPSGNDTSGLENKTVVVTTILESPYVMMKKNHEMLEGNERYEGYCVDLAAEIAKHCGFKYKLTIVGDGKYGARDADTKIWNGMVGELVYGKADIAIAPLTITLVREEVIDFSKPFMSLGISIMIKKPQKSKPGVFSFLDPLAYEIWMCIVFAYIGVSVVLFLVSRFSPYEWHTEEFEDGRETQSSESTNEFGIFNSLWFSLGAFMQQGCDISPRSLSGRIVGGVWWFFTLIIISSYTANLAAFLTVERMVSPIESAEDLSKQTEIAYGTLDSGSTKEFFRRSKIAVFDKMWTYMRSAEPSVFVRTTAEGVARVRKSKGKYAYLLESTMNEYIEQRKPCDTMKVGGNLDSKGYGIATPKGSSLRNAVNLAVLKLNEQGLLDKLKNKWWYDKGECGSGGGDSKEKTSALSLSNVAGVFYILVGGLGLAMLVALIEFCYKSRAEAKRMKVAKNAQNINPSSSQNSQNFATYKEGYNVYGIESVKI
# [3] = molecular target: T1, Glutamate NMDA receptor; GRIN1/GRIN2A; assay: Positive allosteric modulation of GluN1/GluN2A receptor (unknown origin) expressed in CHO cells assessed as increase in glutamate-induced calcium flux measured at time interval of 5 mins in presence of saturating glycine by calcium dye-based fluorescence assay; assay type: cell-based
# [4] = molecular target: T2, Glutamate receptor 2; assay: Positive allosteric modulation of human GluA2 receptor flop isoform assessed as increase in glutamate-induced calcium flux at 125 uM measured at time interval of 5 mins in presence of saturating glycine by calcium dye-based fluorescence assay relative to glutamate; assay type: Functional, single protein
# [5] = molecular target: T2, Glutamate receptor 2; assay: Positive allosteric modulation of human GluA2 receptor flop isoform assessed as increase in glutamate-induced calcium flux measured at time interval of 5 mins in presence of saturating glycine by calcium dye-based fluorescence assay; assay type: Functional, single protein
# [6] = molecular target: T2, Glutamate receptor 2; assay: Positive allosteric modulation of human GluA2 receptor flip isoform assessed as increase in glutamate-induced calcium flux measured at time interval of 5 mins in presence of saturating glycine by calcium dye-based fluorescence assay; assay type: Functional, single protein
# [7] = tested on: MDR1 (human); assay: Efflux ratio of permeability from basolateral to apical over apical to basolateral side in MDCK cells expressing human MDR1; assay type: ADME, cell-based, Canis lupus familiaris; settings: dog
# [8] = Unbound AUClast in mouse at 5 mg/kg, po; assay type: ADME, organism-based; settings: in vivo
# [9] = Volume of distribution at steady state in mouse at 0.5 mg/kg, iv; assay type: ADME, organism-based; settings: in vivo, read-out: Vdss
# [10] = Selectivity ratio of EC50 for human GluA2 flip isoform receptor to EC50 for GluN1/GluN2A receptor (unknown origin) expressed in CHO cells; assay type: ADME, cell-based
# [11] = Clearance in mouse blood at 0.5 mg/kg, iv; assay type: ADME, organism-based
# [12] = Oral bioavailability in mouse at 5 mg/kg; assay type: ADME, organism-based; settings: in vivo
# [13] = Selectivity ratio of EC50 for human GluA2 flop isoform receptor to EC50 for GluN1/GluN2A receptor (unknown origin) expressed in CHO cells; assay type: ADME, cell-based
# [14] = Ratio of fCmax in mouse at 5 mg/kg, po to EC50 for GluN2A receptor (unknown origin) expressed in CHO cells co-expressing GluN1 receptor
# [15] = Protein binding in human plasma; assay type: ADME, cell-free; settings: read-out: PPB (converted)
# [16] = molecular target: Ionotropic glutamate receptor NMDA 1/2C (Homo sapiens, UniProt Q05586+Q14957); assay: Positive allosteric modulation of GluN1/GluN2C receptor (unknown origin) assessed as increase in glutamate-induced calcium flux measured at time interval of 5 mins in presence of saturating glycine by calcium dye-based fluorescence assay
# Sequence of Ionotropic glutamate receptor NMDA 1/2C (Q14957 whole entry, other chains not shown): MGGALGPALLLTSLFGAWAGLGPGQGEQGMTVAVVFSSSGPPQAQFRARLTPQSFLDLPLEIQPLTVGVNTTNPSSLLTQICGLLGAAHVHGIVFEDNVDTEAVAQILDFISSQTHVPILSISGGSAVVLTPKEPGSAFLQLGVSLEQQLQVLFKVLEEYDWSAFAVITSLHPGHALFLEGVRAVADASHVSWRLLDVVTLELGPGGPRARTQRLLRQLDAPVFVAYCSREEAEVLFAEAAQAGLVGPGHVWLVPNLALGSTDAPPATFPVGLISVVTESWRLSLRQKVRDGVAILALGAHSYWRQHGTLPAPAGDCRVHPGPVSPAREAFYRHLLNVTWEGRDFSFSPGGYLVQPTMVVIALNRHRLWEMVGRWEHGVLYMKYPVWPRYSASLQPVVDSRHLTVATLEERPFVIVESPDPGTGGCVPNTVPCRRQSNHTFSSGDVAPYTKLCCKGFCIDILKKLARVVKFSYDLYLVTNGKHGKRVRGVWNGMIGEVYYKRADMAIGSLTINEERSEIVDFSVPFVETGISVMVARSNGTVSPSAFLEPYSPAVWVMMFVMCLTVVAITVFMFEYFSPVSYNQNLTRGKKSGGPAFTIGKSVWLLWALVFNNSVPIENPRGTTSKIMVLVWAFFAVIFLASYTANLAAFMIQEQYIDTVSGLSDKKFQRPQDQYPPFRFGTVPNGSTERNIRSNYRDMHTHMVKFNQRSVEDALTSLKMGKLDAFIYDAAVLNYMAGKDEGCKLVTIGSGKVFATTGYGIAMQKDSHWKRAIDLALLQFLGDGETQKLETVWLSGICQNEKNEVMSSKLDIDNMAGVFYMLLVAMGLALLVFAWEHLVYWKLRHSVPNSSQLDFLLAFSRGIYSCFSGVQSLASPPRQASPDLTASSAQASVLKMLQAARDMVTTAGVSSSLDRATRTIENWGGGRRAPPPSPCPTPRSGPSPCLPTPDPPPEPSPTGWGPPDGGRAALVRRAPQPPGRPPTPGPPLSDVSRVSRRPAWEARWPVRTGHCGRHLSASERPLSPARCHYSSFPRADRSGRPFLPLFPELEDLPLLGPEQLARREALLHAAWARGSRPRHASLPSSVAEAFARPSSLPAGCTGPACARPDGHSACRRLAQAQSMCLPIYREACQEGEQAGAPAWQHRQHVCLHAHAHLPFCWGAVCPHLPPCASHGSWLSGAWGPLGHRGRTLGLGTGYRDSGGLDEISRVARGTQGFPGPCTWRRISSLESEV
# [17] = Unbound Cmax in mouse at 5 mg/kg, po; assay type: ADME, organism-based; settings: in vivo
# [18] = Unbound clearance in mouse blood at 0.5 mg/kg, iv; assay type: ADME, organism-based; settings: in vivo
# [19] = molecular target: Glutamate NMDA receptor; GRIN1/GRIN2B (Homo sapiens, UniProt Q05586+Q13224); assay: Positive allosteric modulation of GluN1/GluN2B receptor (unknown origin) expressed in HEK293 cells assessed as increase in glutamate-induced calcium flux at 125 uM measured at time interval of 5 mins in presence of saturating glycine by calcium dye-based fluorescence assay relative to glutamate; assay type: ADME, cell-based
# Sequence of Glutamate NMDA receptor; GRIN1/GRIN2B (Q13224 whole entry, other chains not shown): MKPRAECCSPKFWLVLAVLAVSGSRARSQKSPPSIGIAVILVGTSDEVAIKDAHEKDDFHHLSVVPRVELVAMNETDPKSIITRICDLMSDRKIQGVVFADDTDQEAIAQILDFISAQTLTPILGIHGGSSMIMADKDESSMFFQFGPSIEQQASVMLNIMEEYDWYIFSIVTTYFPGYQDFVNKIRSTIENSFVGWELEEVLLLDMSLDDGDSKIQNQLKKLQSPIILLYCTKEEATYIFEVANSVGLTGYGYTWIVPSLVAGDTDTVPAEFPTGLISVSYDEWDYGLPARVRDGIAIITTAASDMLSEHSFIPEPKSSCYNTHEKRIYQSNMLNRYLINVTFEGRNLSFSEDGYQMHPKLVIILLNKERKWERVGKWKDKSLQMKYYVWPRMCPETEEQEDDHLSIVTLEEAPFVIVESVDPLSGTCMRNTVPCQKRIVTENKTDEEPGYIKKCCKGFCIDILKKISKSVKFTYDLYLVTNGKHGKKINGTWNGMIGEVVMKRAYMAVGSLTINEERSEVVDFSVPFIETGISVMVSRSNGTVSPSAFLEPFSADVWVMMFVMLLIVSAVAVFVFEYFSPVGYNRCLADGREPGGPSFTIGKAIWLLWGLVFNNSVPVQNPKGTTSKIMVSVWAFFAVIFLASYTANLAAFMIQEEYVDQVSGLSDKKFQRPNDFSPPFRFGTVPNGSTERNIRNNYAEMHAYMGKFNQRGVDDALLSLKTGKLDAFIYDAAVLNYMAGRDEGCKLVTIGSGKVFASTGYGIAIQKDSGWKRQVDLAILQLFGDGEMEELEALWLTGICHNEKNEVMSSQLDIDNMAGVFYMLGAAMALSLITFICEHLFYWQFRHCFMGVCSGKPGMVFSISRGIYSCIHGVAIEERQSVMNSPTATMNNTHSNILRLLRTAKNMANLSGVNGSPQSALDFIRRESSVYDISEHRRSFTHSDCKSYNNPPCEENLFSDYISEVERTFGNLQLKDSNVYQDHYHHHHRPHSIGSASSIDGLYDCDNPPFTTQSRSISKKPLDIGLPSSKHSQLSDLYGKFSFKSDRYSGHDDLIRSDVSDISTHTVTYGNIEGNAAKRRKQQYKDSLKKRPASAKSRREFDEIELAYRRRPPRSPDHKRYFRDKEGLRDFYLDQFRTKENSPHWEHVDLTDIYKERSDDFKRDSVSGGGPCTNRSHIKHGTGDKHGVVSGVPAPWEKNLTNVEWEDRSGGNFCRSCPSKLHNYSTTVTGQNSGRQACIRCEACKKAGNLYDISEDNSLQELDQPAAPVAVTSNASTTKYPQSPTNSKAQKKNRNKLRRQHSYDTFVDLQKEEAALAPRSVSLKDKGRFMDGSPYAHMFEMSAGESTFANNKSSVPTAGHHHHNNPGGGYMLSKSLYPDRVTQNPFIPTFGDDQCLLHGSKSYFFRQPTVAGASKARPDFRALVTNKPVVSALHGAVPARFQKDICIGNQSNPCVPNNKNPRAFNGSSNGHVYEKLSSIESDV
# [20] = Kinetic solubility of the compound; assay type: physicochemical; settings: read-out: Kinetic_solubility
# [21] = Half life in mouse at 0.5 mg/kg, iv; assay type: ADME, organism-based; settings: in vivo
# [22] = Selectivity ratio of EC50 for GluN1/GluN2B receptor (unknown origin) expressed in HEK293 cells to EC50 for GluN1/GluN2A receptor (unknown origin) expressed in CHO cells; assay type: cell-based; settings: human
# [23] = Protein binding in mouse plasma; assay type: ADME, cell-free; settings: read-out: PPB (converted)
# [24] = Ratio of unbound concentration in brain to plasma in mouse at 5 mg/kg, po at 1 hr; assay type: ADME, organism-based; settings: brain and plasma, read-out: K(p,uu,brain)
# [25] = molecular target: Ionotropic glutamate receptor NMDA 1/2D (Homo sapiens, UniProt O15399+Q05586); assay: Positive allosteric modulation of GluN1/GluN2D receptor (unknown origin) assessed as increase in glutamate-induced calcium flux measured at time interval of 5 mins in presence of saturating glycine by calcium dye-based fluorescence assay
# Sequence of Ionotropic glutamate receptor NMDA 1/2D (O15399 whole entry, other chains not shown): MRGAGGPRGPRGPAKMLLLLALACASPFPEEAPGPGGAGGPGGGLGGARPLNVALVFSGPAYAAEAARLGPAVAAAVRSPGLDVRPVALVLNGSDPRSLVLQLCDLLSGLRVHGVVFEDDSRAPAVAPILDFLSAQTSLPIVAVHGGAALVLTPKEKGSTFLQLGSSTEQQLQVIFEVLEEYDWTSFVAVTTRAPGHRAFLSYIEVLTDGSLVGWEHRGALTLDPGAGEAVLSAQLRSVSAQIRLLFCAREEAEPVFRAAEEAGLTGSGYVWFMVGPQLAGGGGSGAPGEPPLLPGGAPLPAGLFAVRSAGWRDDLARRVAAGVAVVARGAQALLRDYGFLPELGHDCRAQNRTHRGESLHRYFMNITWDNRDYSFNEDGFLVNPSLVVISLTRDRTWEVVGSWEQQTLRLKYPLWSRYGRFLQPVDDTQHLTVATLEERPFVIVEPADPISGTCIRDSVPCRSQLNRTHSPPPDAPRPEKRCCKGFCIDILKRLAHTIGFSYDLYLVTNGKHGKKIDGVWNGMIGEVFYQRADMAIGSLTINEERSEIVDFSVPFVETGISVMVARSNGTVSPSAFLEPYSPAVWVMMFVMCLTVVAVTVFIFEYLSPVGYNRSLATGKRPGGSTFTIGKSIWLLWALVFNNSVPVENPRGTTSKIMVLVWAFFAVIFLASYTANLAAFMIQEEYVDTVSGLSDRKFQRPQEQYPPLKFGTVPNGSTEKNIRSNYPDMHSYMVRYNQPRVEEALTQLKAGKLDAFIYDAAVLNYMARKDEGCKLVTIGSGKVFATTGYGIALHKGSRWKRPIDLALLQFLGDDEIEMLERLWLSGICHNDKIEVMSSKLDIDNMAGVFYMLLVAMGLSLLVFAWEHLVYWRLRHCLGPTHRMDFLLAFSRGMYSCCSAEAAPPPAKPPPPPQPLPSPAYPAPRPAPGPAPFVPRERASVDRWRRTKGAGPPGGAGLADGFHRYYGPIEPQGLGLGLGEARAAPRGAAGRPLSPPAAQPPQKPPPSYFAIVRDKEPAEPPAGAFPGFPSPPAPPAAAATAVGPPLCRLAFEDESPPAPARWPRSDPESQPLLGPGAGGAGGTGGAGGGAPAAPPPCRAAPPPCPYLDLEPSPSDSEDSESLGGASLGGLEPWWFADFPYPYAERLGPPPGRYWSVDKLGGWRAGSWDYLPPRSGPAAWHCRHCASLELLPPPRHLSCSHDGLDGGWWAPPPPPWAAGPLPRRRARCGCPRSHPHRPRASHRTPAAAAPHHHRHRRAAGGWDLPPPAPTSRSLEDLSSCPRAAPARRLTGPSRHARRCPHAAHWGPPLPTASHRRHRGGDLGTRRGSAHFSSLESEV
# [26] = Lipophilicity, log D of the compound; assay type: physicochemical; settings: octanol/water
# [27] = Drug uptake in mouse brain; assay type: ADME, tissue-based; settings: in vivo
# [28] = Activity at AMPA receptor in mouse hippocampal brain slices assessed as electrical stimulation-induced excitatory post synaptic potential at -70 mV holding potential by electrophysiology method; assay type: ADME
# [29] = molecular target: T1, Glutamate NMDA receptor; GRIN1/GRIN2A; assay: Deactivation of GluN1/GluN2A receptor (unknown origin) expressed in CHO cells assessed as time constant for signal decay at 1 uM preincubated followed by glutamate addition in presence of saturating glycine measured after glutamate removal by electrophysiology method; assay type: cell-based
structure (smiles),measurement,setting,value
CCNC(=O)c1c(C)ccc2nc(Cn3nc(C(F)(F)F)cc3Cl)cc(=O)n12,Emax,[1],129%
same,Emax at 125 µM,[2],1%
same,EC50,[3],2.5 µM
same,Emax at 125 µM,[4],-1%
Cc1sc2nc(Cn3nc(C(F)(F)F)cc3Cl)cc(=O)n2c1-c1cncnc1,EC50,[5],1.2 µM
same,EC50,[6],9.6 µM
same,Emax,[1],88%
same,Emax at 125 µM,[2],28%
same,EC50,[3],1.4 µM
same,Emax at 125 µM,[4],9%
Cc1ccc2nc(Cn3nc(C(F)(F)F)cc3Cl)cc(=O)n2c1-c1cncnc1,Emax,[1],84%
same,Emax at 125 µM,[2],5%
same,EC50,[3],9.8 µM
same,Emax at 125 µM,[4],3%
N#C[C@@H]1C[C@H]1c1c(F)ccc2nc(Cn3nc(C(F)(F)F)cc3Cl)cc(=O)n12,EC50,[5],0.46 µM
same,EC50,[6],3.1 µM
same,efflux ratio,[7],1.5
same,Emax,[1],151%
same,Emax at 125 µM,[2],67%
same,EC50,[3],0.021 µM
same,Emax at 125 µM,[4],69%
Cc1cc([C@@H]2C[C@H]2C#N)n2c(=O)cc(Cn3nc(C(F)(F)F)cc3Cl)nc2c1,EC50,[5],0.21 µM
same,EC50,[6],3.1 µM
same,efflux ratio,[7],2.2
same,Emax,[1],144%
same,Emax at 125 µM,[2],86%
same,Emax at 125 µM,[4],83%
Cc1sc2nc(Cn3nc(C(F)(F)F)cc3Cl)cc(=O)n2c1[C@@H]1C[C@H]1C#N,Emax,[1],151%
same,Emax at 125 µM,[2],91%
same,Emax at 125 µM,[4],93%
N#C[C@@H]1C[C@H]1c1cc(C(F)(F)F)cc2nc(Cn3nc(C(F)(F)F)cc3Cl)cc(=O)n12,EC50,[5],16 µM
same,EC50,[6],27 µM
same,efflux ratio,[7],2.1
same,Emax,[1],142%
same,Emax at 125 µM,[2],27%
same,Emax at 125 µM,[4],77%
COc1cc([C@@H]2C[C@H]2C#N)n2c(=O)cc(Cn3nc(C(F)(F)F)cc3Cl)nc2c1,EC50,[5],2.2 µM
same,EC50,[6],6.7 µM
same,efflux ratio,[7],2.2
same,Emax,[1],140%
same,Emax at 125 µM,[2],51%
same,EC50,[3],0.13 µM
same,Emax at 125 µM,[4],67%
Cc1ccc2nc(Cn3nc(C(F)(F)F)cc3Cl)cc(=O)n2c1[C@@H]1C[C@H]1C#N,EC50,[5],31 µM
same,EC50,[6],67 µM
same,efflux ratio,[7],2
same,Emax,[1],137%
same,Emax at 125 µM,[2],66%
same,EC50,[3],0.041 µM
same,Emax at 125 µM,[4],63%
N#C[C@@H]1C[C@H]1c1cccc2nc(Cn3nc(C(F)(F)F)cc3Cl)cc(=O)n12,EC50,[5],0.41 µM
same,EC50,[6],0.81 µM
same,Emax,[1],148%
same,Emax at 125 µM,[2],90%
same,EC50,[3],0.024 µM
same,Emax at 125 µM,[4],90%
CCNC(=O)c1c(C)sc2nc(Cn3nc(C(F)(F)F)cc3Cl)cc(=O)n12,Emax,[1],120%
same,Emax at 125 µM,[2],8%
same,Emax at 125 µM,[4],16%
Cc1sc2nc(Cn3nc(C(F)(F)F)cc3Cl)cc(=O)n2c1C1CC1,Emax,[1],116%
same,Emax at 125 µM,[2],51%
same,EC50,[3],0.27 µM
same,Emax at 125 µM,[4],32%
N#C[C@@H]1C[C@H]1c1c(Cl)ccc2nc(Cn3nc(C(F)(F)F)cc3Cl)cc(=O)n12,fAUClast,[8],0.53 µM·h
same,Vd,[9],7 L/kg
same,EC50,[5],49 µM
same,Ratio EC50,[10],> 1000
same,clearance,[11],10 mL/min/kg
same,bioavailability,[12],37%
same,Ratio EC50,[13],> 1000
same,EC50,[6],45 µM
same,Ratio,[14],1.6
same,fraction unbound,[15],0.056
same,efflux ratio,[7],1.6
same,EC50,[16],4.7 µM
same,fCmax,[17],0.06 µM
same,CL free,[18],132 mL/min/kg
same,Emax at 125 µM,[19],96%
same,solubility kinetic,[20],43.5 µM
same,Emax at 125 µM,[2],61%
same,half-life,[21],8 h
same,Emax at 125 µM,[4],67%
same,Ratio EC50,[22],> 100
same,fraction unbound,[23],0.076
same,Kp uu at 1 h,[24],0.67
same,EC50,[25],9.5 µM
same,logD,[26],1.8
same,Drug uptake,[27],94.9%
same,EC50,[28],> 15 µM
Cc1ccc2nc(Cn3nc(C(F)(F)F)cc3Cl)cc(=O)n2c1C1CC1,EC50,[5],2.5 µM
same,EC50,[6],1.3 µM
same,Emax,[1],107%
same,Emax at 125 µM,[2],7%
same,EC50,[3],0.28 µM
same,Emax at 125 µM,[4],3%
COc1ccc2nc(Cn3nc(C(F)(F)F)cc3Cl)cc(=O)n2c1[C@@H]1C[C@H]1C#N,efflux ratio,[7],3.2
same,Emax,[1],120%
same,Emax at 125 µM,[2],28%
same,EC50,[3],0.08 µM
same,Emax at 125 µM,[4],15%
N#C[C@@H]1C[C@H]1c1c(C(F)(F)F)sc2nc(Cn3nc(C(F)(F)F)cc3Cl)cc(=O)n12,EC50,[28],5.7 µM
same,TIME,[29],0.000584 h
